The target of one test is IKKε (Homo sapiens (Human), UniProt Q14164). The test can be described thus: IKKε TR-FRET enzymatic assay. It is filed as biochemical. Particulars: read-out: IKKe IC50.
For a further test, the target named is hJAK2 (Homo sapiens (Human), UniProt O60674). Kind of test: hJAK2 LANCE TR-FRET enzymatic assay. The class given is biochemical. The settings on record: read-out: JAK2 IC50.
A further test deals with TBK1 (Homo sapiens (Human), UniProt Q9UHD2). The test can be described thus: TBK1 TR-FRET enzymatic assay.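 Further: phosphorylation of a biotinylated Ser/Thr peptide by purified full-length recombinant TBK1, read by TR-FRET after 240 min at 25 °C, IC50 is the geometric mean of at least four runs.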
Where [1] appears, read: TR-FRET, 2×Km ATP, geometric mean of minimum four determinations.

Where two headings read alike, the source gives them in different places.

hJAK2, sequence (O60674 whole entry): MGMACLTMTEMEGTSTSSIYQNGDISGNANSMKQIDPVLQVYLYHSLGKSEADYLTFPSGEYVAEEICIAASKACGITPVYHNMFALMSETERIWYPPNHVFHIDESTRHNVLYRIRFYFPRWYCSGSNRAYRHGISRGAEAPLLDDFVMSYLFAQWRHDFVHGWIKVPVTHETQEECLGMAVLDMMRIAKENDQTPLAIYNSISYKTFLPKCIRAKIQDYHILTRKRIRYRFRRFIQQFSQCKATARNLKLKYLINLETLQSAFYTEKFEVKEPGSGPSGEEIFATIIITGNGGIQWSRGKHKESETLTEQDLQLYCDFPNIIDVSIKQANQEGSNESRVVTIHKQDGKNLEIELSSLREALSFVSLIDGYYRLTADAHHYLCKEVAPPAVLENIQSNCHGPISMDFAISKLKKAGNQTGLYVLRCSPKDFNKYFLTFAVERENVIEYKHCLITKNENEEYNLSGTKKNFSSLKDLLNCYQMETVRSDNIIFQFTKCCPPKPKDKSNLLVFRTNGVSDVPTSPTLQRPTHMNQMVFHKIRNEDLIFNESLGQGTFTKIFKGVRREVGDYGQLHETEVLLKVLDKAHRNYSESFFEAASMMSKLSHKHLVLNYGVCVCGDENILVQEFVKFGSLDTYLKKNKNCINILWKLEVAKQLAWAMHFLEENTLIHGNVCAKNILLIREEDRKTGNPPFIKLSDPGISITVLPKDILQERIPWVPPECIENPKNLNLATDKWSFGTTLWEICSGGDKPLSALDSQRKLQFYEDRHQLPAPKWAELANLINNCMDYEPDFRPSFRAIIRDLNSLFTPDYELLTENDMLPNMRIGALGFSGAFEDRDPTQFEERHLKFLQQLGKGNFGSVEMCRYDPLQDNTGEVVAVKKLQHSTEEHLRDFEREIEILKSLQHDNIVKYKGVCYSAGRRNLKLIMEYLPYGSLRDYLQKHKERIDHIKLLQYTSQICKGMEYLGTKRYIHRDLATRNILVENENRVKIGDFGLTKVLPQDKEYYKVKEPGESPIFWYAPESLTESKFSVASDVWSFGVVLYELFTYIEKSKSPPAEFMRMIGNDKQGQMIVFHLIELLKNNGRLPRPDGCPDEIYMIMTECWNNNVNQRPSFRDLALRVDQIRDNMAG
IKKε, sequence (Q14164 whole entry): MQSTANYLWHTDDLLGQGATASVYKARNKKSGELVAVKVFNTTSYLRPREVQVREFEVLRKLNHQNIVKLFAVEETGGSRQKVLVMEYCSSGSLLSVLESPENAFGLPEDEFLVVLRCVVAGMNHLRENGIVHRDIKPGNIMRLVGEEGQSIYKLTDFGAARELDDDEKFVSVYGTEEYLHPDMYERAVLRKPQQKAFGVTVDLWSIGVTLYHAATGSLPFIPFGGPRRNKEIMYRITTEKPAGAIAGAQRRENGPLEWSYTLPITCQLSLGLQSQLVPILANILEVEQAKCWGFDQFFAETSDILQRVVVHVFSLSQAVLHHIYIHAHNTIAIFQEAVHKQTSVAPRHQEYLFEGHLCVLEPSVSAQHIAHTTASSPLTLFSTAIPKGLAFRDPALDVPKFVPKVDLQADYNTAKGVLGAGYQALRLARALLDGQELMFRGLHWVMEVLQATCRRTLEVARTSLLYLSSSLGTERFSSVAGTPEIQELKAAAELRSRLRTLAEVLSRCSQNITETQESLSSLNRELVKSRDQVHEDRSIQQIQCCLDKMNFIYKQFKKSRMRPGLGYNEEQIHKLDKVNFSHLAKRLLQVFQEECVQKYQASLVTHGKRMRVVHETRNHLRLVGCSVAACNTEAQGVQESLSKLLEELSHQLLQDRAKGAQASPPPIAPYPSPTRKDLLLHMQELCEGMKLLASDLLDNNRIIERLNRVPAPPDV
TBK1, sequence (Q9UHD2 whole entry): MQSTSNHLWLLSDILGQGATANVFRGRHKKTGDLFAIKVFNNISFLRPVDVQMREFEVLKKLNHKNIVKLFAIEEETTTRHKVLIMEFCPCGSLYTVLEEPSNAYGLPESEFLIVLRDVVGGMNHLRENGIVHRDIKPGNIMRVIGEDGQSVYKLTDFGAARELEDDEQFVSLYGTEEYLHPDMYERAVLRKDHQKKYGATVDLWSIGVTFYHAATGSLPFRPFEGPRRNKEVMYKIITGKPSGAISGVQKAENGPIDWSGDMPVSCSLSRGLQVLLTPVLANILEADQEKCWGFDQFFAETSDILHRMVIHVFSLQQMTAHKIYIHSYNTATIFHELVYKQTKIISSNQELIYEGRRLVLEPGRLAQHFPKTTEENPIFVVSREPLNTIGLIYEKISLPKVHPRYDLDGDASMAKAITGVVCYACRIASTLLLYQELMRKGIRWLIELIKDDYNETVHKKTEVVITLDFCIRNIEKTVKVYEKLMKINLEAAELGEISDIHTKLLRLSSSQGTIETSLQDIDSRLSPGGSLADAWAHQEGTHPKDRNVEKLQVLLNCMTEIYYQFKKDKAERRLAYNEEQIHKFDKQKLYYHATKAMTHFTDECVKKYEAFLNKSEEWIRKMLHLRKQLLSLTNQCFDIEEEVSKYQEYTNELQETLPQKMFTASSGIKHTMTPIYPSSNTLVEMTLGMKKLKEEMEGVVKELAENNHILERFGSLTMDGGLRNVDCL

In the case of `C[C@H](O)C(=O)N1CC[C@H](COc2cc(C#N)cc(-c3ncnc(Nc4ccc(N5CCN(C6COC6)CC5)cc4)n3)c2)C1` [Example 590, 3-(((S)-1-((S)-2-hydroxypropanoyl)pyrrolidin-3-yl)methoxy)-5-(4-((4-(4-(oxetan-3-yl)piperazin-1-yl)phenyl)amino)-1,3,5-triazin-2-yl)benzonitrile], the concentration for half-maximal inhibition (IC50) at IKKε (setting [1]) is not below 1000 nM; at hJAK2, not below 1000 nM; against TBK1, 528 nM.
For the compound `N#Cc1cc(OC[C@H]2CCN(C(=O)CO)C2)cc(-c2ncnc(Nc3ccc(N4CCN(C5COC5)CC4)cc3)n2)c1` [Example 591, (S)-3-((1-(2-hydroxyacetyl)pyrrolidin-3-yl)methoxy)-5-(4-((4-(4-(oxetan-3-yl)piperazin-1-yl)phenyl)amino)-1,3,5-triazin-2-yl)benzonitrile], the concentration for half-maximal inhibition (IC50) is not below 1000 nM at IKKε (setting [1]), 658 nM on hJAK2 and 474 nM at TBK1.
The corresponding values for `N#Cc1cc(-c2ncnc(Nc3ccc(N4CCN(C5COC5)CC4)cc3)n2)ccc1OCCn1ccnc1` [Example 592, 2-(2-(1H-imidazol-1-yl)ethoxy)-5-(4-((4-(4-(oxetan-3-yl)piperazin-1-yl)phenyl)amino)-1,3,5-triazin-2-yl)benzonitrile] are 23 nM, 239 nM and 21 nM.
Consider `Cn1ccc(C(=O)N2CCC(COc3ccc(-c4ncnc(Nc5ccc(N6CCN(C7COC7)CC6)cc5)n4)cc3C#N)CC2)cc1=O` [Example 593, 2-((1-(1-methyl-2-oxo-1,2-dihydropyridine-4-carbonyl)piperidin-4-yl)methoxy)-5-(4-((4-(4-(oxetan-3-yl)piperazin-1-yl)phenyl)amino)-1,3,5-triazin-2-yl)benzonitrile], for which the IC50 on IKKε (setting [1]) was 660 nM; on hJAK2, not below 1000 nM; against TBK1, 452 nM.
In the same order, the values of `N#Cc1cc(-c2ncnc(Nc3ccc(N4CCN(C5COC5)CC4)cc3)n2)ccc1OCC1CCC(=O)N1` (stereo not drawn) [Example 594, 5-(4-((4-(4-(oxetan-3-yl)piperazin-1-yl)phenyl)amino)-1,3,5-triazin-2-yl)-2-((5-oxopyrrolidin-2-yl)methoxy)benzonitrile] are 232 nM, not below 1000 nM and 169 nM.
On to `Cn1ccc(C(=O)N2CCC(Oc3ccc(-c4ncnc(Nc5ccc(N6CCN(C7COC7)CC6)cc5)n4)cc3C#N)CC2)cc1=O` [Example 595, 2-((1-(1-methyl-2-oxo-1,2-dihydropyridine-4-carbonyl)piperidin-4-yl)oxy)-5-(4-((4-(4-(oxetan-3-yl)piperazin-1-yl)phenyl)amino)-1,3,5-triazin-2-yl)benzonitrile], for which the half-maximal inhibitory concentration (IC50) was 89 nM at IKKε (setting [1]), not below 1000 nM at hJAK2 and 69 nM against TBK1.
In the same order, the values of `CN1CCC(COc2ccc(-c3ncnc(Nc4ccc(N5CCN(C6COC6)CC5)cc4)n3)cc2C#N)CC1=O` (stereo not drawn) [Example 596, 2-((1-methyl-2-oxopiperidin-4-yl)methoxy)-5-(4-((4-(4-(oxetan-3-yl)piperazin-1-yl)phenyl)amino)-1,3,5-triazin-2-yl)benzonitrile] are 403 nM, not below 1000 nM and 264 nM.
The corresponding values for `N#Cc1cc(-c2ncnc(Nc3ccc(N4CCN(C5COC5)CC4)cc3)n2)ccc1OCCC1CNC(=O)C1` (stereo not drawn) [Example 597, 5-(4-((4-(4-(oxetan-3-yl)piperazin-1-yl)phenyl)amino)-1,3,5-triazin-2-yl)-2-(2-(5-oxopyrrolidin-3-yl)ethoxy)benzonitrile] are 131 nM, not below 1000 nM and 95 nM.
The corresponding values for `N#Cc1cc(-c2ncnc(Nc3ccc(N4CCN(C5COC5)CC4)cc3)n2)ccc1OCCNC(=O)c1cccnc1` [Example 598, N-(2-(2-cyano-4-(4-((4-(4-(oxetan-3-yl)piperazin-1-yl)phenyl)amino)-1,3,5-triazin-2-yl)phenoxy)ethyl)nicotinamide] are 720 nM, 521 nM and 267 nM.
With `N#Cc1cc(-c2ncnc(Nc3ccc(N4CCN(C5COC5)CC4)cc3)n2)ccc1OCCc1cnc2ncnn2c1` [Example 599], the figures for the IC50 at IKKε, at hJAK2 and at TBK1 were 176 nM, 510 nM and 37 nM, respectively.
In the same order, the values of `COCCN1CC(COc2ccc(-c3ncnc(Nc4ccc(N5CCN(C6COC6)CC5)cc4)n3)cc2C#N)CC1=O` (stereo not drawn) [Example 601, 2-((1-(2-methoxyethyl)-5-oxopyrrolidin-3-yl)methoxy)-5-(4-((4-(4-(oxetan-3-yl)piperazin-1-yl)phenyl)amino)-1,3,5-triazin-2-yl)benzonitrile] are not below 1000 nM, not below 1000 nM and 1000 nM.
As for `N#Cc1cc(-c2ncnc(Nc3ccc(N4CCN(C5COC5)CC4)cc3)n2)ccc1OCCNC(N)=O` [Example 602, 1-(2-(2-cyano-4-(4-((4-(4-(oxetan-3-yl)piperazin-1-yl)phenyl)amino)-1,3,5-triazin-2-yl)phenoxy)ethyl)urea], the IC50 is 619 nM on IKKε, not below 1000 nM on hJAK2 and 126 nM on TBK1.
In the same order, the values of `N#Cc1cc(-c2ncnc(Nc3ccc(N4CCN(C5COC5)CC4)cc3)n2)ccc1OCC1CCNC(=O)C1` (stereo not drawn) [Example 604, 5-(4-((4-(4-(oxetan-3-yl)piperazin-1-yl)phenyl)amino)-1,3,5-triazin-2-yl)-2-((2-oxopiperidin-4-yl)methoxy)benzonitrile] are 37 nM, 950 nM and 28 nM.
Take `N#Cc1cc(-c2ncnc(Nc3ccc(N4CCN(C5COC5)CC4)cc3)n2)ccc1OCCN1CCN(C(N)=O)CC1` [Example 606, 4-(2-(2-cyano-4-(4-((4-(4-(oxetan-3-yl)piperazin-1-yl)phenyl)amino)-1,3,5-triazin-2-yl)phenoxy)ethyl)piperazine-1-carboxamide]: the values for the IC50 at IKKε, on hJAK2 and against TBK1 were 494 nM, not below 1000 nM and 503 nM, respectively.
As to `N#Cc1cc(-c2ncnc(Nc3ccc(N4CCN(C5COC5)CC4)cc3)n2)ccc1OCC1CNC(=O)O1` (stereo not drawn) [Example 607, 5-(4-((4-(4-(oxetan-3-yl)piperazin-1-yl)phenyl)amino)-1,3,5-triazin-2-yl)-2-((2-oxooxazolidin-5-yl)methoxy)benzonitrile], the IC50 was 16 nM at IKKε, 161 nM at hJAK2 and 21 nM against TBK1.
For `N#Cc1cc(-c2ncnc(Nc3ccc(N4CCN(C5COC5)CC4)cc3)n2)ccc1OCCN1CCNC(=O)C1` [Example 608, 5-(4-((4-(4-(oxetan-3-yl)piperazin-1-yl)phenyl)amino)-1,3,5-triazin-2-yl)-2-(2-(3-oxopiperazin-1-yl)ethoxy)benzonitrile], the half-maximal inhibitory concentration (IC50) on IKKε is not below 1000 nM; at hJAK2, not below 1000 nM; against TBK1, 662 nM.
Regarding `Cc1cc(C)n(CCOc2ccc(-c3ncnc(Nc4ccc(N5CCN(C6COC6)CC5)cc4)n3)cc2C#N)n1` [Example 609, 2-(2-(3,5-dimethyl-1H-pyrazol-1-yl)ethoxy)-5-(4-((4-(4-(oxetan-3-yl)piperazin-1-yl)phenyl)amino)-1,3,5-triazin-2-yl)benzonitrile], the results for the concentration for half-maximal inhibition (IC50) at IKKε, at hJAK2 and against TBK1 were not below 1000 nM, 237 nM and 1000 nM, respectively.
In the same order, the values of `N#Cc1cc(-c2ncnc(Nc3ccc(N4CCN(C5COC5)CC4)cc3)n2)ccc1O[C@H]1CCN(c2cccnc2)C[C@H]1F` [Example 611, 2-(((3R,4S)-3-fluoro-1-(pyridin-3-yl)piperidin-4-yl)oxy)-5-(4-((4-(4-(oxetan-3-yl)piperazin-1-yl)phenyl)amino)-1,3,5-triazin-2-yl)benzonitrile] are not below 1000 nM, not below 1000 nM and 1000 nM.
The corresponding values for `Cc1noc(C(=O)N2CC[C@H](Oc3ccc(-c4ncnc(Nc5ccc(N6CCN(C7COC7)CC6)cc5)n4)cc3C#N)[C@H](F)C2)n1` [Example 612, 2-(((3R,4S)-3-fluoro-1-(3-methyl-1,2,4-oxadiazole-5-carbonyl)piperidin-4-yl)oxy)-5-(4-((4-(4-(oxetan-3-yl)piperazin-1-yl)phenyl)amino)-1,3,5-triazin-2-yl)benzonitrile] are 2 nM, 607 nM and 3 nM.
With `C[C@H](O)C(=O)N1CC[C@H](Nc2ccc(-c3ncnc(Nc4ccc(N5CCN(C6COC6)CC5)cc4)n3)cc2C#N)[C@H](F)C1` [Example 613, 2-(((3R,4S)-3-fluoro-1-((S)-2-hydroxypropanoyl)piperidin-4-yl)amino)-5-(4-((4-(4-(oxetan-3-yl)piperazin-1-yl)phenyl)amino)-1,3,5-triazin-2-yl)benzonitrile], the IC50 at IKKε turned out to be 175 nM; on hJAK2, 69 nM; against TBK1 it was 128 nM.
Consider `N#Cc1cc(-c2ncnc(Nc3ccc(N4CCN(C5COC5)CC4)cc3)n2)ccc1O[C@H]1CCN(C(=O)C2(O)CNC2)C[C@H]1F` [Example 614, 2-(((3R,4S)-3-fluoro-1-(3-hydroxyazetidine-3-carbonyl)piperidin-4-yl)oxy)-5-(4-((4-(4-(oxetan-3-yl)piperazin-1-yl)phenyl)amino)-1,3,5-triazin-2-yl)benzonitrile], for which the values for the IC50 on IKKε, on hJAK2 and against TBK1 were 45 nM, 268 nM and 25 nM, respectively.
The corresponding values for `C[C@H](O)C(=O)N1CC[C@H](Oc2ccc(-c3ncnc(Nc4ccc([C@H]5CCCN5)cc4)n3)cc2C#N)[C@H](F)C1` [Example 615, 2-(((3R,4S)-3-fluoro-1-((S)-2-hydroxypropanoyl)piperidin-4-yl)oxy)-5-(4-((4-((R)-pyrrolidin-2-yl)phenyl)amino)-1,3,5-triazin-2-yl)benzonitrile] are 1 nM, not below 1000 nM and 4 nM.

The record behind these values is US10040781B2, “Tank-binding kinase inhibitor compounds” (Gilead Sciences, Inc., priority 2014, dated 2018).
